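Compound exposure: 48 hours, 5 concentrations, 96-well plates. Here, GI50 denotes the concentration required for 50% inhibition of growth.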 Calls of active or inactive are those of the source. Cut-off read from the data, not from the text of the source: active = GI50 up to about 1.1 µM and inactive = higher.
Experiments:
Test in all cases: NCI tumour cell line growth inhibition, 48 h
HL-60 = tested on: HL-60
SK-MEL-28 = tested on: SK-MEL-28
HT-29 = tested on: HT-29
DMS-273 = tested on: DMS-273
UACC-257 = tested on: UACC-257
SK-MEL-2 = tested on: SK-MEL-2
XF498 = tested on: XF498
CAKI-1 = tested on: CAKI-1
LOX IMVI = tested on: LOX IMVI
U-251 = tested on: U-251
SNB-75 = tested on: SNB-75
MOLT-4 = tested on: MOLT-4
M14 = tested on: M14
KM-20L2 = tested on: KM-20L2
Malme-3M = tested on: Malme-3M
K562 = tested on: K562
A498 = tested on: A498
LXFL 529 = tested on: LXFL 529
RPMI-8226 = tested on: RPMI-8226
CCRF-CEM = tested on: CCRF-CEM
TK-10 = tested on: TK-10
HCT-15 = tested on: HCT-15
SNB-19 = tested on: SNB-19
OVCAR-5 = tested on: OVCAR-5
NCI-H226 = tested on: NCI-H226
RXF 631 = tested on: RXF 631
DLD-1 = tested on: DLD-1
KM12 = tested on: KM12
UACC-62 = tested on: UACC-62
SN12C = tested on: SN12C
OVCAR-8 = tested on: OVCAR-8
IGROV-1 = tested on: IGROV-1
EKVX = tested on: EKVX
M19-MEL = tested on: M19-MEL
SK-OV-3 = tested on: SK-OV-3
OVCAR-3 = tested on: OVCAR-3
HCC 2998 = tested on: HCC 2998
NCI-H23 = tested on: NCI-H23
786-0 = tested on: 786-0
DMS-114 = tested on: DMS-114
COLO 205 = tested on: COLO 205
ACHN = tested on: ACHN
OVCAR-4 = tested on: OVCAR-4
NCI-H522 = tested on: NCI-H522
SK-MEL-5 = tested on: SK-MEL-5
UO-31 = tested on: UO-31
A549 = tested on: A549
SF-539 = tested on: SF-539
HCT-116 = tested on: HCT-116
HOP-62 = tested on: HOP-62
SW-620 = tested on: SW-620
SF-268 = tested on: SF-268
SF-295 = tested on: SF-295
HOP-92 = tested on: HOP-92
RXF 393 = tested on: RXF 393
NCI-H460 = tested on: NCI-H460

With `Cc1cccc(/N=C/c2ccc(N(CCC#N)S(=O)(=O)c3ccccc3)cc2C)c1` the GI50 (HL-60) was 21.9 µM (inactive), the GI50 (SK-MEL-28) was > 100 µM (inactive) and the GI50 (HT-29) was > 100 µM (inactive). For the same compound, the GI50 (DMS-273) was > 100 µM (inactive), the GI50 (UACC-257) was > 100 µM (inactive) and the GI50 (SK-MEL-2) was > 100 µM (inactive). The GI50 (XF498) was > 100 µM (inactive), the GI50 (CAKI-1) was > 100 µM (inactive) and the GI50 (LOX IMVI) was 17.6 µM (inactive). The GI50 (U-251) was > 100 µM (inactive), the GI50 (SNB-75) was 67 µM (inactive) and the GI50 (MOLT-4) was 29.2 µM (inactive). For the same compound, the GI50 (M14) was > 100 µM (inactive), the GI50 (KM-20L2) was > 100 µM (inactive) and the GI50 (Malme-3M) was > 100 µM (inactive). The GI50 (K562) was 34.5 µM (inactive), the GI50 (A498) was > 100 µM (inactive) and the GI50 (LXFL 529) was 29.6 µM (inactive). The GI50 (RPMI-8226) was 63.4 µM (inactive), the GI50 (CCRF-CEM) was 19.1 µM (inactive) and the GI50 (TK-10) was > 100 µM (inactive). For the same compound, the GI50 (HCT-15) was 98.6 µM, the GI50 (SNB-19) was > 100 µM (inactive) and the GI50 (OVCAR-5) was > 100 µM (inactive). For the same compound, the GI50 (NCI-H226) was 20.7 µM (inactive), the GI50 (RXF 631) was > 100 µM (inactive) and the GI50 (DLD-1) was > 100 µM (inactive). For the same compound, the GI50 (KM12) was > 100 µM (inactive), the GI50 (UACC-62) was 26.1 µM (inactive) and the GI50 (SN12C) was > 100 µM (inactive). For the same compound, the GI50 (OVCAR-8) was 42.9 µM (inactive), the GI50 (IGROV-1) was > 100 µM (inactive) and the GI50 (EKVX) was > 100 µM (inactive). For the same compound, the GI50 (M19-MEL) was > 100 µM (inactive), the GI50 (SK-OV-3) was > 100 µM (inactive) and the GI50 (OVCAR-3) was > 100 µM (inactive). For the same compound, the GI50 (HCC 2998) was > 100 µM (inactive), the GI50 (NCI-H23) was > 100 µM (inactive) and the GI50 (786-0) was > 100 µM (inactive). The GI50 (DMS-114) was 63.7 µM (inactive), the GI50 (COLO 205) was > 100 µM (inactive) and the GI50 (ACHN) was 88.3 µM (inactive). The GI50 (OVCAR-4) was > 100 µM (inactive), the GI50 (NCI-H522) was > 100 µM (inactive) and the GI50 (SK-MEL-5) was > 100 µM (inactive). For the same compound, the GI50 (UO-31) was 13.3 µM (inactive), the GI50 (A549) was > 100 µM (inactive) and the GI50 (SF-539) was > 100 µM (inactive). For the same compound, the GI50 (HCT-116) was > 100 µM (inactive), the GI50 (HOP-62) was > 100 µM (inactive) and the GI50 (SW-620) was > 100 µM (inactive). The GI50 (SF-268) was 58.9 µM (inactive), the GI50 (SF-295) was > 100 µM (inactive) and the GI50 (HOP-92) was 33.3 µM (inactive).
`O=C1C=CC2(C=C1)CCNC1=C2C(=O)c2ccccc2C1=O` was tested, and the GI50 (HL-60) was > 100 µM (inactive), the GI50 (SK-MEL-28) was > 100 µM (inactive) and the GI50 (HT-29) was > 100 µM (inactive). For the same compound, the GI50 (DMS-273) was > 100 µM (inactive), the GI50 (UACC-257) was 50 µM (inactive) and the GI50 (SK-MEL-2) was > 100 µM (inactive). The GI50 (XF498) was > 100 µM (inactive), the GI50 (LOX IMVI) was > 100 µM (inactive) and the GI50 (U-251) was > 100 µM (inactive). The GI50 (RXF 393) was > 100 µM (inactive), the GI50 (SNB-75) was 30.8 µM (inactive) and the GI50 (MOLT-4) was > 100 µM (inactive). For the same compound, the GI50 (M14) was > 100 µM (inactive), the GI50 (KM-20L2) was > 100 µM (inactive) and the GI50 (Malme-3M) was > 100 µM (inactive). The GI50 (K562) was > 100 µM (inactive), the GI50 (A498) was > 100 µM (inactive) and the GI50 (LXFL 529) was > 100 µM (inactive). For the same compound, the GI50 (RPMI-8226) was > 100 µM (inactive), the GI50 (CCRF-CEM) was > 100 µM (inactive) and the GI50 (TK-10) was > 100 µM (inactive). For the same compound, the GI50 (HCT-15) was greater than 100 µM, the GI50 (OVCAR-5) was > 100 µM (inactive) and the GI50 (NCI-H226) was > 100 µM (inactive). For the same compound, the GI50 (RXF 631) was > 100 µM (inactive), the GI50 (DLD-1) was > 100 µM (inactive) and the GI50 (KM12) was > 100 µM (inactive). The GI50 (UACC-62) was > 100 µM (inactive), the GI50 (SN12C) was > 100 µM (inactive) and the GI50 (OVCAR-8) was > 100 µM (inactive). The GI50 (IGROV-1) was > 100 µM (inactive), the GI50 (EKVX) was > 100 µM (inactive) and the GI50 (M19-MEL) was 32.5 µM (inactive). For the same compound, the GI50 (SK-OV-3) was > 100 µM (inactive), the GI50 (OVCAR-3) was 28.5 µM (inactive) and the GI50 (HCC 2998) was > 100 µM (inactive). For the same compound, the GI50 (NCI-H23) was > 100 µM (inactive), the GI50 (786-0) was > 100 µM (inactive) and the GI50 (DMS-114) was > 100 µM (inactive). For the same compound, the GI50 (COLO 205) was > 100 µM (inactive), the GI50 (ACHN) was > 100 µM (inactive) and the GI50 (OVCAR-4) was > 100 µM (inactive). For the same compound, the GI50 (NCI-H522) was > 100 µM (inactive), the GI50 (SK-MEL-5) was 56.9 µM (inactive) and the GI50 (UO-31) was > 100 µM (inactive). For the same compound, the GI50 (A549) was > 100 µM (inactive), the GI50 (NCI-H460) was > 100 µM (inactive) and the GI50 (SF-539) was > 100 µM (inactive). The GI50 (HCT-116) was > 100 µM (inactive), the GI50 (HOP-62) was > 100 µM (inactive) and the GI50 (SW-620) was > 100 µM (inactive). The GI50 (SF-268) was > 100 µM (inactive), the GI50 (SF-295) was > 100 µM (inactive) and the GI50 (HOP-92) was > 100 µM (inactive).

— ChEMBL document CHEMBL1201862, “PubChem BioAssay data set” (2004)
